Measured values taken from patent publication US20260376293A1, “METHODS FOR STUDYING GPR158 PHARMACOLOGY AND IDENTIFICATION OF ITS LIGANDS” (UNIVERSITY OF FLORIDA RESEARCH FOUNDATION, INCORPORATED, priority 2022, published 2026).

Biological target: T1, GPR158 Y269A mutant (Homo sapiens, UniProt Q5T848, Y269A)
T1 sequence (Q5T848 24-1215 Y269A): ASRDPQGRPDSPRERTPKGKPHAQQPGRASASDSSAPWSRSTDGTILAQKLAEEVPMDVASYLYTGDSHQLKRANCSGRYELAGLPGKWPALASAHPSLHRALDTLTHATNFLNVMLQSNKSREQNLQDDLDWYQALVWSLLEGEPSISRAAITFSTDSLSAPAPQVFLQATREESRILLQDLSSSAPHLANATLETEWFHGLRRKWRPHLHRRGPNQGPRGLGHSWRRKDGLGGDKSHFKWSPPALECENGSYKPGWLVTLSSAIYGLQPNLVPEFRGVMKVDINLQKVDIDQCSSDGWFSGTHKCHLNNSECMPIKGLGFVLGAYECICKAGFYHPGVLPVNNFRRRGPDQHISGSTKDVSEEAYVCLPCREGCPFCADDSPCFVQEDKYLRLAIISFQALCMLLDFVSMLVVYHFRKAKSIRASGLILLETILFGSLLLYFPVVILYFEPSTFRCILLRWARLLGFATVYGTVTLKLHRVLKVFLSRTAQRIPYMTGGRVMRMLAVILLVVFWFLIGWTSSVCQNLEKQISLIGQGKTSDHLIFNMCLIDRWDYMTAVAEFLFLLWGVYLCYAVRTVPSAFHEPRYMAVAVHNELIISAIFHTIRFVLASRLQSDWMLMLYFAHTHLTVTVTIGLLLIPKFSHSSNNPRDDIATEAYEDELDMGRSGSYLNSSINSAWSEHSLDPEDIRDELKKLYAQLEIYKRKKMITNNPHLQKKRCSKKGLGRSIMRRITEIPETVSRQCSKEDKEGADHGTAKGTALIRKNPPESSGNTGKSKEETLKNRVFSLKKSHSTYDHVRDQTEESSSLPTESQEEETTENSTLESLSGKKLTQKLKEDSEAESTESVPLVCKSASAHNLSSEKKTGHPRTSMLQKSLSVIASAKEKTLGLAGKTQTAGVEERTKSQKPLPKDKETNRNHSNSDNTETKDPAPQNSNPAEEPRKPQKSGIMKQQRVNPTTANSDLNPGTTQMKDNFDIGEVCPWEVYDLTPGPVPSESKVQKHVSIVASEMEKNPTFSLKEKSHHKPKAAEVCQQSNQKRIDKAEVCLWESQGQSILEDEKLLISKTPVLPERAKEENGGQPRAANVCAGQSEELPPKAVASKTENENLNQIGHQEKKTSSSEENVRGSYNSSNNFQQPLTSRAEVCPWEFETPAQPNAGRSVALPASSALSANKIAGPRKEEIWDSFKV
Experiment: Radioligand binding assay on GPR158 mutant Y269A
Text: FIGS. 11A-11G. Probing Cache domain of GPR158 as a ligand binding site A) Computational docking of glycine into putative ligand binding pocket on GPR158 Cache domain. Glycine and directly interacting residues are shown as sticks. Hydrogen bonds and van der Waals interactions are shown as dotted lines. B) Diagram showing interactions in the docked model of glycine against GPR158 Cache domain. Hydrogen bonds are shown as dashed lines, van der Waals interactions are shown as intersecting semicircles, and the secondary structural context of Ser266 and Tyr269 is shown as an arc. Dagger indicates a residue implicated in glycine binding in 11A. C) Radioligand binding assay of ^3H-glycine in cells expressing GPR158 mutants. Data shown mean±s.e.m. of 3 independent experiments, *p<0.05, ns=p>0.05 one-way ANOVA. D) Functional evaluation of GPR158 mutants in GAP BRET assay. Error bars are mean±s.e.m. of 3 independent experiments in triplicate. *p<0.05, **p<0.01, ***p<0.001, ****p<0.0001, ns=p>0.05, two-way ANOVA Columns with no fill (Ctrl), columns with angled-line fill (Glycine) E) Quantification of glycine inhibitory effect on kGAP normalized to the effect seen with WT receptor. […]
Whole cell binding was performed using cDNA of GPR158-venus or each GPR158-venus mutant or empty pcDNA3.1+ for ctrl cells. […] Finally radioactivity was measured using the liquid scintillation analyzer Tri-Carb 4910 TR.

[^3H]-glycine binding: near complete loss
SMILES: NCC(=O)O [^3H-glycine, [^3H]-glycine]
